Reference: patent US6933285B2, “Flavin N-oxides: new anti-cancer agents and pathogen eradication agents” (The Ohio State University, priority 2002, dated 2005)

Experiments:
bacteriophage Φ6 = conditions: platelet concentrates, normal oxygen tension, UVA; cited from earlier work
[1] = system: non-enveloped parvoviruses; conditions: cited from earlier work
Water solubility = type: physicochemical
Description: Riboflavin N-oxide, is one example of a flavin N-oxide, it is water soluble and electrically neutral. Additionally, upon fragmentation of the neutral radical, riboflavin N-oxide forms the hydroxyl radical, which damages the nucleic acid, and riboflavin, vitamin B2, which is generally regarded as safe in humans.
In the methods of the present invention, the flavin N-oxides are introduced to the composition containing the blood products. It is preferred that the flavin N-oxides of the present invention are water-soluble. By “water soluble” we mean that it is preferred that the solubility of the flavin N-oxides is at least 100 micromolar in water. An exemplary flavin N-oxide for the methods of the present invention is riboflavin N-oxide. Once introduced to the blood product composition, riboflavin N-oxide, which is electrically neutral, may passively transport into cells, where it is enzymatically activated to form a radical anion. Additionally, riboflavin N-oxide may be activated by electromagnetic radiation. When electromagnetic radiation is used as the activator, the wavelength of light is preferably in the visible region.

[2] = system: PA-Lymphoblastoid Cell Line; experiment: PA-Lymphoblastoid cell viability under oxygen deprivation in the presence of sensitizers; type: cell-based; conditions: PA-Lymphoblastoid cells; for cell count at Time (hour) 0 / cell count at Time (hour) 4 / cell count at Time (hour) 20: solutions and cells bubbled with nitrogen 15 minutes; for cell count at Time (hour) 0: time 0 hour; for cell count at Time (hour) 4: time 4 hour; for cell count at Time (hour) 20: time 20 hour
Procedure: PA-Lymphoblastoid Cell Line: Study of the effect of oxygen deprivation in the presence of 3 sensitizers Six solutions were prepared having the solutions and the cells from each of the 6 sets were “bubbled” with nitrogen separately for 15 minutes before being mixed.
The results of this study are shown graphically in FIG. 5.

SMILES	inactivation of the virus bacteriophage Φ6 (bacteriophage Φ6)	potency towards the non-enveloped parvoviruses [1]	water solubility (Water solubility)	hypoxic toxicity ([2]; oxygen deprivation)	cell count at Time (hour) 0 [2] [million cells/mL]	cell count at Time (hour) 4 [2] [million cells/mL]	cell count at Time (hour) 20 [2] [million cells/mL]
COc1c2occc2cc2ccc(=O)oc12 [8-MOP]	completely inactivate						
Cc1oc2c(C)c3oc(=O)cc(C)c3cc2c1CN [AMT]	completely inactivate	limited potency					
Cc1cc2c(cc1C)[n+]([O-])c1c(=O)[nH]c(=O)nc-1n2CC(O)C(O)C(O)CO (centres unmarked) [RBO, riboflavin N-oxide]			water soluble	high hypoxic toxicity	0.45	0.46	0.06
Cc1cc2nc3c(=O)[nH]c(=O)nc-3n(C[C@H](O)[C@H](O)[C@H](O)CO)c2cc1C [Riboflavin (RB), Riboflavin]					1	0.9	0.63
Nc1n[n+]([O-])c2ccccc2[n+]1[O-] [Tirapazamine (TPZ), Tirapazamine]					0.4	0.4	0.36
